Test results as given in patent US20220017541A1, “INHIBITORS OF ARGINASE” (Black Belt Tx Ltd, priority 2018, published 2022).

Legend:
Assay type in all cases: biochemical
[1] = target: T1, native ARG1 enzyme in lysates of RBC (Homo sapiens, UniProt P05089); assay: Arginase enzymatic assay in RBC lysates from healthy donors; conditions: human red blood cell lysates; read-out: IC50 Inh RBC
T1 construct: native ARG1 enzyme in lysates of RBC; from tissue; host or cells: human red blood cell lysates from healthy donors
T1 sequence (P05089 1-322): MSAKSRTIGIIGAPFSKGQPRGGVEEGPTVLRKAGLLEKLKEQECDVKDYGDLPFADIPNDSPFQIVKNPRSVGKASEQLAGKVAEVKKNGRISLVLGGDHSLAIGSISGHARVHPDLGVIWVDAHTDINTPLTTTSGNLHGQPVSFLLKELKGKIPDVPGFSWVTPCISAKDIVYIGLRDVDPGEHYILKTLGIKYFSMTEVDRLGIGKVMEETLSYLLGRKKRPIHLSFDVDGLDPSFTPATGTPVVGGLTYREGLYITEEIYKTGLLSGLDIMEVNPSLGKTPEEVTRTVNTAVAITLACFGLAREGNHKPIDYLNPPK
Description: (§1) Arginase catalyzes the hydrolysis of L-arginine into L-ornithine and urea. Urea amount produced by this reaction can be detected using a colorimetric assay and used as an indirect measurement of arginase activity. An adapted protocol from (Baggio, R., et al., J Pharmacol Exp Ther, 1999. 290(3): p. 1409-16) was used for the testing the ability of exemplary compounds of the invention to inhibit arginase enzymes from a variety of sources including recombinant human ARG1 and 2, lysates of human red blood cells (RBC) and intact murine macrophages, as described below.
(§2) Compounds of the invention were prepared from powder as 10 mM stock solutions in DMSO and stored in presence of N2 neutral atmosphere at −80° C. For IC50 determination and just before the assay, exemplary compounds were successively diluted to get the following concentrations: 210, 70, 21, 7, 2.1, 0.7, 0.21, 0.07, 0.021, 0.007, 0.0021 and 0.0007 μM (i.e., final concentrations in the wells of 30, 10, 3, 1, 0.3, 0.1, 0.03, 0.01, 0.003, 0.001, 0.0003, 0.0001 μM).
(§3) Assays were run in clear flat bottom 96-well plates (Nunclon, Cat. No. #167008) adding in each well the following solutions in this order: (1) 10 μl of Tris-HCl solution supplemented with 0.1% bovine serum albumin (BSA) containing 1.563 μg/ml recombinant human ARG1 (R&D System, Cat. No. #5868-AR-010), (2) 30 μl of Tris-HCl buffer containing 10 mM MnCl2 and (3) 10 μL of a pre-dilution of each test article or DMSO (vehicle). Compounds were allowed to interact with the enzyme-cofactor complex pre-incubating the plate at 37° C. for 30 min. To start the reaction, 20 μl of 50 mM L-arginine (Sigma Aldrich Cat. #A5006-100G) were added to each well in exception of the blank reaction (see below). All reactions were allowed to happen for 1 h at 37° C. To detect the urea production, reactions were stopped by adding 200 μl of a mixture of reagent A (4 mM o-phthalaldehyde in 50 mM Boric Acid, 1 M Sulfuric Acid, 0.03% Brij-35 (w/v)) and reagent B (4 mM N-(1-naphthyl)ethylenediamine in 50 mM Boric Acid, 1 M Sulfuric Acid, 0.03% Brij-35 (w/v)) in equal proportion. Color product was developed for 1 h at room temperature (RT) protected from light and then absorbance at 520 nm was measured using a Multifunction Microplate Reader (Synergy 4, Bioteck). Blank reactions were carried out by adding the L-arginine substrate only after the addition of mixture A-B. All reactions were carried out in duplicates.
(§4) The inhibition of urea production was calculated subtracting the absorbance from the blank reaction (zero enzymatic urea production) to the absorbance from all reactions and it was expressed as the percentage of the absorbance from the reaction containing the test article with respect to the absorbance from vehicle reaction (maximum of urea production).
For testing inhibitory activity over RBC lysates from healthy donors, 10 μl of Tris-HCl solution supplemented with 0.1% BSA containing 160 μg RBC lysates per well was used instead.

recombinant human ARG1 = target: T2, recombinant human ARG1 (Homo sapiens, UniProt P05089); assay: Arginase enzymatic assay in vitro, recombinant human ARG1 (colorimetric urea detection); conditions: recombinant human arginase 1; read-out: IC50 Inh rhARG1
T2 construct: purchased R&D System 5868-AR-010
T2 sequence (P05089 1-322): T1 sequence (P05089 1-322)
Description: as §1, §2, §3, §4

recombinant human ARG2 = target: T3, recombinant human ARG2 (Homo sapiens, UniProt P78540); assay: Arginase enzymatic assay in vitro, recombinant human ARG2 (colorimetric urea detection); conditions: recombinant human arginase 2; read-out: IC50 Inh rhARG2
T3 construct: purchased BPS Bioscience 71659
T3 sequence (P78540 23-354): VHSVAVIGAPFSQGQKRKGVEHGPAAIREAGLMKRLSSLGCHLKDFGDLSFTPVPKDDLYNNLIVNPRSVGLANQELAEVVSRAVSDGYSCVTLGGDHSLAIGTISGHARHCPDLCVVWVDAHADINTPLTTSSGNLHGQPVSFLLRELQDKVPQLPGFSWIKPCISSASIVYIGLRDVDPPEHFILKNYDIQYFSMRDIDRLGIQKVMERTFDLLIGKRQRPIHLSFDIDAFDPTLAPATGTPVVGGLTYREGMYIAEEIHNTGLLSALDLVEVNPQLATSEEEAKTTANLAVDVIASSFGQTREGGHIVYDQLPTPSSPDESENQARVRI
Description: as §1, §2, §3, §4
For testing inhibitory activity over recombinant human arginase II, 10 μl of Tris-HCl solution supplemented with 0.1% BSA containing 1.5 μg/ml recombinant human ARG2 (BPS Bioscience, Cat. No. #71659) was used instead of ARG1.

IC50 [1] | IC50 (recombinant human ARG1) | IC50 (recombinant human ARG2) | Compound
< 0.5 µM | < 0.5 µM | < 0.5 µM | NC(CCCCB(O)O)(C(=O)O)C1CCN(C2CCc3cc(Cl)ccc32)CC1 (single isomer, unassigned) [Compound 14, 2-amino-6-borono-2-[1-(5-chloroindan-1-yl)-4-piperidyl]hexanoic acid]
< 0.5 µM | < 0.5 µM | < 0.5 µM | NC(CCCCB(O)O)(C(=O)O)C1CCN(C2CCCc3cc(Cl)ccc32)CC1 (single isomer, unassigned) [Compound 17, 2-amino-6-borono-2-(1-(6-chloro-1,2,3,4-tetrahydronaphthalen-1-yl)piperidin-4-yl)hexanoic acid]
< 0.5 µM | < 0.5 µM | < 0.5 µM | CNC(CCCCB(O)O)(C(=O)O)C1CCN(C2CCCc3ccccc32)CC1 (single isomer, unassigned) [Compound 79, 6-borono-2-(methylamino)-2-(1-(1,2,3,4-tetrahydronaphthalen-1-yl)piperidin-4-yl)hexanoic acid]
< 0.5 µM | < 0.5 µM | < 0.5 µM | NC(CCCCB(O)O)(C(=O)O)C1CCN(C2CCCc3ccc(F)cc32)CC1 (single isomer, unassigned) [Compound 83, 2-amino-6-borono-2-(1-(7-fluoro-1,2,3,4-tetrahydronaphthalen-1-yl)piperidin-4-yl)hexanoic acid]
< 0.5 µM | < 0.5 µM | 0.5 to 5 µM | NC(CCCCB(O)O)(C(=O)O)C1CCN(C2CCCCc3ccccc32)CC1 (single isomer, unassigned) [Compound 84, 2-amino-6-borono-2-(1-(6,7,8,9-tetrahydro-5H-benzo[7]annulen-5-yl)piperidin-4-yl)hexanoic acid]
< 0.5 µM | < 0.5 µM | < 0.5 µM | NC(CCCCB(O)O)(C(=O)O)C1CCN(C2CCc3cc(C(F)(F)F)ccc32)CC1 (single isomer, unassigned) [Compound 85, 2-amino-6-borono-2-[1-[5-(trifluoromethyl)indan-1-yl]-4-piperidyl]hexanoic acid]
< 0.5 µM | < 0.5 µM | 0.5 to 5 µM | CC1(C)OB(CCCCC(N)(C(=O)O)C2CCN(C3CCCc4ccccc43)CC2)OC1(C)C (stereo not drawn) [Compound 77, 2-amino-2-(1-(1,2,3,4-tetrahydronaphthalen-1-yl)piperidin-4-yl)-6-(4,4,5,5-tetramethyl-1,3,2-dioxaborolan-2-yl)hexanoic acid]

The next lines start with the compound.

Compound | IC50 [1] | IC50 (recombinant human ARG1) | IC50 (recombinant human ARG2)
NC(CCCCB(O)O)(C(=O)O)C1CCN(C2CCc3ccccc32)CC1 (single isomer, unassigned) [Compound 2, 2-amino-6-borono-2-(1-(2,3-dihydro-1H-inden-1-yl)piperidin-4-yl)hexanoic acid] | < 0.5 µM | < 0.5 µM | < 0.5 µM
NC(CCCCB(O)O)(C(=O)O)C1CCN(C2CCc3ccccc32)CC1 (single isomer, unassigned) [Compound 3, 2-amino-6-borono-2-(1-(2,3-dihydro-1H-inden-1-yl)piperidin-4-yl)hexanoic acid] | > 5 µM | > 5 µM | > 5 µM
NC(CCCCB(O)O)(C(=O)O)C1CCN(C2CCCc3ccccc32)CC1 (single isomer, unassigned) [Compound 4, 2-amino-6-borono-2-(1-(1,2,3,4-tetrahydronaphthalen-1-yl)piperidin-4-yl)hexanoic acid] | < 0.5 µM | < 0.5 µM | 0.5 to 5 µM
NC(CCCCB(O)O)(C(=O)O)C1CCN(C2CCCc3ccccc32)CC1 (single isomer, unassigned) [Compound 5, 2-amino-6-borono-2-(1-(1,2,3,4-tetrahydronaphthalen-1-yl)piperidin-4-yl)hexanoic acid] | < 0.5 µM | < 0.5 µM | < 0.5 µM
NC(CCCCB(O)O)(C(=O)O)C1CCN(C2CCCc3ccccc32)CC1 (single isomer, unassigned) [Compound 6, 2-amino-6-borono-2-(1-(1,2,3,4-tetrahydronaphthalen-1-yl)piperidin-4-yl)hexanoic acid] | > 5 µM | > 5 µM | > 5 µM
CC(c1ccccc1)N1CCC(C(N)(CCCCB(O)O)C(=O)O)CC1 (single isomer, unassigned) [Compound 10, 2-amino-6-borono-2-(1-(1-phenylethyl)piperidin-4-yl)hexanoic acid] | < 0.5 µM | < 0.5 µM | < 0.5 µM
CC(c1ccccc1)N1CCC(C(N)(CCCCB(O)O)C(=O)O)CC1 (single isomer, unassigned) [Compound 11, 2-amino-6-borono-2-(1-(1-phenylethyl)piperidin-4-yl)hexanoic acid] | > 5 µM | > 5 µM | > 5 µM
NC(CCCCB(O)O)(C(=O)O)C1CCN(C2CCc3ccccc32)CC1 (stereo not drawn) [Compound 1, 2-amino-6-borono-2-(1-(2,3-dihydro-1H-inden-1-yl)piperidin-4-yl)hexanoic acid] | < 0.5 µM | < 0.5 µM | 0.5 to 5 µM
CC(c1ccccc1)N1CCC(C(N)(CCCCB(O)O)C(=O)O)CC1 (stereo not drawn) [Compound 9, 2-amino-6-borono-2-(1-(1-phenylethyl)piperidin-4-yl)hexanoic acid] | < 0.5 µM | < 0.5 µM | 0.5 to 5 µM
